Reference: BindingDB's records for doi:10.1021/np2005083 (National Cancer Institute-Frederick, 2011)

Molecular target: Transcription factor Jun (Homo sapiens, UniProt P05412)
Assay: Inhibition of AP1 expressed in HEK293T cells coexpressing beta-lactamase pre-incubated 1 hr before TPA addition measured 18 hrs post TPA challenge by fluorimetric assay

Chain of Transcription factor Jun (P05412 whole entry): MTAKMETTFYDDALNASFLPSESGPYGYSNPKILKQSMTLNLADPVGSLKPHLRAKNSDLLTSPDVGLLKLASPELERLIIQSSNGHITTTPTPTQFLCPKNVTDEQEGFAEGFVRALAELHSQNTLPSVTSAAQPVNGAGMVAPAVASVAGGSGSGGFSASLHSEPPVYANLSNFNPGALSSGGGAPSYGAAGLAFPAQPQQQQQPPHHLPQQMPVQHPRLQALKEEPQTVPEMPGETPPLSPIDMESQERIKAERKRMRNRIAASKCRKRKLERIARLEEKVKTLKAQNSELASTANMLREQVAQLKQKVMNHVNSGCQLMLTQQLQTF

| IC50 [µM] | SMILES |
| --- | --- |
| 5.2 | CC[C@H]1NC(=O)[C@@H]2CSC(=N2)[C@@H](Cc2ccccc2)N(C)C(=O)[C@@H]2CCCN2C(=O)[C@H](C(C)C)N(C)C(=O)[C@H](Cc2ccccc2)OC(=O)[C@H](C)[C@@H](C)NC(=O)[C@@H](C(C)C)NC(=O)[C@@H](Cc2ccccc2)N(C)C(=O)[C@@H]2CSC1=N2 |
| 6 | CC(C)[C@H]1C(=O)N2CCC[C@H]2C(=O)N(C)[C@H](Cc2ccccc2)C2=N[C@@H](CS2)C(=O)N[C@H](C)C2=N[C@@H](CS2)C(=O)N(C)[C@H](Cc2ccccc2)C(=O)N[C@H](C(C)C)C(=O)N[C@H](C)[C@@H](C)C(=O)O[C@@H](Cc2ccccc2)C(=O)N1C |
